Laboratory results published in article PMC6342294, “Asymmetric diversification of mating pheromones in fission yeast” (PLoS Biology, 2019).

Experiments:
[1] = target: T1, Map3 (Schizosaccharomyces pombe, UniProt P31397); experiment: Shmooing assay of synthetic M-factor peptides on P cells lacking rgs1+ (TS405); type: cell-based, S. pombe; conditions: EMM2−N
T1 construct: an M-factor-sensitive strain lacking the rgs1^+ gene [53]; endogenous in cells; host or cells: S. pombe heterothallic haploid P cells lacking rgs1+ (TS405)
T1 sequence (P31397 1-365): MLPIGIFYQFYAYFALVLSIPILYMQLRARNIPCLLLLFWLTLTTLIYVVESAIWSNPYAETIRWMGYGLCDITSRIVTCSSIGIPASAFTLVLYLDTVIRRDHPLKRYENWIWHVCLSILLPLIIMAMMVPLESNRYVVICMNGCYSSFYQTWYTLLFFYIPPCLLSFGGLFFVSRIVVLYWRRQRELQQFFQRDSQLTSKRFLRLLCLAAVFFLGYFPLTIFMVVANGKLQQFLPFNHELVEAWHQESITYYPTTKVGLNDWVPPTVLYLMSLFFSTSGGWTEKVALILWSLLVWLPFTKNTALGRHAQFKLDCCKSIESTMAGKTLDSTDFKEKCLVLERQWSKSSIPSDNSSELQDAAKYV
Experimental: Under these conditions, approximately 40% of cells treated with Sp-M-factor peptide underwent shmoo formation, whereas no cells treated with So-M-factor peptide underwent shmooing (S5B Fig). When the concentration of So-M-factor was raised to 1,000 nM, the cells underwent shmoo elongation a little (S5B Fig).
P-factor and M-factor peptides were chemically synthesized (Eurofins) for the shmooing assay. The purity of the preparations was over 95% (HPLC). P-factor was dissolved in dimethyl sulfoxide (DMSO) at a concentration of 500 μM, and M-factor was dissolved in methanol (MeOH) at a concentration of 1 mM. The stock solutions were diluted with culture medium to the appropriate dilution ratio. For the assay, heterothallic haploid cells were grown in YE medium overnight, washed with sterilized water three times, and then resuspended in EMM2−N medium at a cell density of 4 × 10^7 cells/ml. The cells were treated with the synthetic pheromone and incubated for exactly 24 hours with gentle shaking.
To assess whether Mam2 could recognize different P-factors, a P-factor sensitive strain lacking the sxa2^+ gene (TS402) was used. The cells were incubated with synthetic P-factors at different concentrations (0, 10, 100, and 1,000 nM) for 24 hours and observed by a DIC microscope. Images were recorded, and the L and W of a cell were measured to determine the L/W ratio. […] In all cases, at least 100 cells each were measured. […] The cells were treated with synthetic M-factors at different concentrations (0, 100, and 1,000 nM) for 24 hours, and analyzed, as described above.
Supplementary file pbio.3000101.s005.tif: S5 Fig Effects of mating pheromones of S. octosporus on S. pombe cells. […] The ability of each M-factor peptide to induce shmooing was assessed by the L/W ratio of a cell, as described in S3 Fig. (C) Comparison of the amino sequences of Sp-P-factors and So-P-factors. […] The shmooing assay was evaluated as described in S3 Fig. EMM2−N, Edinburgh Minimal Medium 2 lacking nitrogen; L, length; M, Minus; P, Plus; rgs, regulator of G-protein signaling; So, S. octosporus; Sp, S. pombe; W, width. […]

[2] = tested on: S. pombe cells; experiment: Quantitative assay of zygote formation (mating efficiency), S. pombe strains; type: cell-based; conditions: peptide produced by engineered strain; mfm1 gene integrated in M-factorless strain FY23412; MEA, 2 days, 30 °C; mean ± SD of triplicate
Experimental: The resulting strains each produced one of the six P-factors. The mating efficiency of these strains was assessed by the frequency of zygotes. […] To determine whether the order of nucleotide sequences encoding mature P-factor affects zygote frequency, we also introduced a map2 gene carrying a permuted sequence of repeats (P2-P3-P2-P1) into the FY23418 strain. Similar to the strain with the native sequence, this strain also mated at high frequency (74.2% ± 1.7%) (Fig 2D); therefore, the effect of peptide-coding position appears small.
Next, we assessed whether the pheromone peptides of S. octosporus are effective on S. pombe cells. […] Next, we replaced the Sp-M-factor–encoding sequence in the mfm1^+ gene with the So-M-factor–encoding sequence (mfm1^So). […] In short, S. pombe P cells were unable to mate with M cells producing So-M-factor. […] We also replaced the So-P-factor–encoding sequence (7 repeats) in the So-map2^+ gene with the Sp-P-factor–encoding sequence (4 repeats) (So-map2^Sp) in S. octosporus cells. […]
Cells grown on YEA plates overnight were resuspended in sterilized water to a cell density of 1 × 10^8 cells/ml. […] The percentage of zygotes was calculated, as described previously. In all cases, triplicate samples (at least 300 cells each) were counted, and the mean and standard deviation (SD) were calculated.

[3] = TS405 P cells (rgs1Δ), 100 nM synthetic M-factor, one day

## YQPKPPAMC^Far-OCH3 [So-M-factor, putative M-factor of S. octosporus, farnesylated methylated nonapeptide]
[1]; [3]
  Shmooing at 100 nM (in words): no cells
[1]; TS405 P cells (rgs1Δ), 1,000 nM synthetic M-factor, 24 hours
  Shmoo elongation at 1,000 nM (in words): a little
[2]
  Mating efficiency (zygotes) of S. pombe strain producing only this M-factor: completely sterile

## YTPKVPYMC^Far-OCH3 [Sp-M-factor, S. pombe mature M-factor, farnesylated and methylated peptide of nine amino acids, reference compound]
[1]; [3]
  Proportion of cells that underwent shmoo formation, 100 nM: approximately 40%
[2]
  Mating efficiency (zygotes) of S. pombe strain producing only this M-factor: 72.1% ± 3.7%
